From publication PMC5146660, “Functional and structural characterization of a novel putative cysteine protease cell wall-modifying multi-domain enzyme selected from a microbial metagenome” (Scientific Reports, 2016) come the findings set out here.

This test deals with T1, PCP (putative cysteine protease).
T1 construct: domains 1-48, 49-185 (CHAP, Cys100/His161), 186-247 (PGBD), 248-319 (SH3); monomer; printed peptide 178PVTDALKR185; primers encode start (M)LGQISTA and end KYARLVE
Kind of test: tryptophan fluorescence quenching, double-logarithm regression. To be noted: 50 mM NaH2PO4, 300 mM NaCl, 200 mM imidazole, pH 8.5, 25 °C; protein 5.28 μM; excitation 295 nm; read-out: Kb (converted). The format is binding, uncultured bacterium (Capra hircus rumen metagenome).

With `CC1(C)S[C@@H]2[C@H](NC(=O)[C@H](N)c3ccccc3)C(=O)N2[C@H]1C(=O)O` [ampicillin], the Kd is 5.56 µM.
